# Laboratory results taken from patent US11865116B2, “Treatment of cancer with TG02” (Cothera Bioscience, Inc., priority 2016, dated 2024).
# Tested on: mouse glioma GL261 cells
# Assay: Mouse glioma GL261 cell allograft model, survival
# Format: in vivo
# Details: female C57BL/6 albino mice, GL261 cells in the striatum; vehicle 24 days
# Protocol: Mouse glioma GL261 cells were injected stereotactically into the striatum of female C57BL/6 albino mice (n=5-7 per cohort) followed by vehicle, TG02, TMZ, and TG02+TMZ combination treatment. A median overall survival of 24, 24.5, 27.5, and 32 days, respectively was observed. The result was analyzed using Logrank test for trend in GraphPad Prism software (Chi square=9.063, df=1, P value=0.0026**). The turmor burden was determined by bioluminescence imaging (BLI) taken using the PerkinElmer IVIS® Spectrum. The intensity of BLI was calculated and normalized to the initial intensity at day 5.
structure (smiles),measurement,value
"Cn1nnc2c(C(N)=O)ncn2c1=O [TMZ, temozolomide, reference compound]",median overall survival,27.5 days
